Measured values reported in BindingDB's records for doi:10.7270/Q2P55M4P (Burnham Center For Chemical Genomics, 2013).
pEC50: −log10 of the molar value.

Target: Tumor necrosis factor receptor superfamily member 10B (Homo sapiens, UniProt O14763)
Sequence (O14763 whole entry): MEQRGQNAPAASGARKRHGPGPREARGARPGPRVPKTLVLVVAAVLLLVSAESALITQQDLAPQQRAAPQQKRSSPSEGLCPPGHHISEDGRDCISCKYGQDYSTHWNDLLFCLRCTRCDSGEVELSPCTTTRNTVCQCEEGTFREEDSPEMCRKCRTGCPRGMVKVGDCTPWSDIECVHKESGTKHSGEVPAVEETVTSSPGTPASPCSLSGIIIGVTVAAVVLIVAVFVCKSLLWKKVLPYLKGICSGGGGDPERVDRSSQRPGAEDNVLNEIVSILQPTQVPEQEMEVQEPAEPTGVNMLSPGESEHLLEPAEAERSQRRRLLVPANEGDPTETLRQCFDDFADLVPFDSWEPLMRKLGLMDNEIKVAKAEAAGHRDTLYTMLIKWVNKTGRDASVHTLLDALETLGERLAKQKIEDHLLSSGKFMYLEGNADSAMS

Structure (SMILES)	pEC50
O=c1[nH]c(N=NCc2ccc3c(c2)OCO3)nc2ccccc12 [MLS000700888]	4.96
CCOC(=O)C(c1nc2ccccc2[nH]1)n1c(-c2cccnc2)nc2ccccc21 (stereo unspecified) [2-(1,3-dihydrobenzimidazol-2-ylidene)-2-[2-(3-pyridinyl)-1-benzimidazolyl]acetic acid ethyl ester]	4.98
CN(C)c1ccc(N=CCC(=O)c2ccco2)cc1	5.12
CCOC(=O)c1ccc(N=CCC(=O)c2ccco2)cc1 [ethyl 4-[[(E)-3-(furan-2-yl)-3-oxoprop-1-enyl]amino]benzoate]	< 4.90
COc1ccc(CN=Nc2nc3ccccc3c(=O)n2-c2ccccc2)cc1OC [SMR000174011]	5.07
O=c1c2ccccc2nc2c3ccccc3cnn12	< 4.90
Cc1cc(N=NCc2ccccc2)nc(NCc2ccccc2)n1 [6-methyl-N2-(phenylmethyl)-N4-[(E)-(phenylmethylidene)amino]pyrimidine-2,4-diamine]	< 4.90
Cc1ccc(N=CC(C(=O)c2cccs2)C(=O)C(F)(F)F)cc1 (stereo unspecified)	5.73
O=C(Cc1ccc2ccccc2n1)c1ccc(O)cc1O [(2Z)-1-(2,4-dihydroxyphenyl)-2-(1H-quinolin-2-ylidene)ethanone]	< 4.90
COc1ccc(C(C)N=Nc2nncc3ccccc23)cc1 (stereo unspecified) [N-[(E)-1-(4-methoxyphenyl)ethylideneamino]-1-phthalazinamine]	< 4.90
COc1cccc(N=CCC(=O)c2ccc(Cl)cc2)c1 [(E)-1-(4-chlorophenyl)-3-(3-methoxyanilino)-2-propen-1-one]	4.99
